# Test results as given in PubChem BioAssay (NCI).
# Several values for one entry are separate records, joined by “and”; a condition that tells them apart may be missing. Equal entries are not always repeated.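 These data come from cells grown in 96-well plates and exposed to compound for 48 hours at five concentrations. Abbreviation: GI50, concentration required for 50% inhibition of growth. TGI: total growth inhibition.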
# Experiments:
# Test in all cases: NCI anticancer screen, dose series, 48 h
# [1] = test system: A549 NSCLC
# [2] = test system: ACHN renal
# [3] = test system: CAKI-1 renal
# [4] = test system: HCC-2998 colon
# [5] = test system: HL-60(TB) leukemia
# [6] = test system: M14 melanoma
# [7] = test system: SK-MEL-5 melanoma
# [8] = test system: SR leukemia
# [9] = test system: UACC-257 melanoma
# [10] = test system: UO-31 renal
SMILES,GI50 [1] [µM],TGI [1] [µM],GI50 [2] [µM],TGI [2],GI50 [3] [µM],TGI [3],GI50 [4] [µM],TGI [4] [µM],GI50 [5] [µM],TGI [5] [µM],GI50 [6] [µM],TGI [6],GI50 [7],TGI [7],GI50 [8] [µM],TGI [8] [µM],GI50 [9] [µM],TGI [9] [µM],GI50 [10] [µM],TGI [10]
COC1=CC(c2ccc[nH]2)=N/C1=C\c1ccc[nH]1,0.201,12.6,0.226,11.3 µM,0.151,3.26 µM,0.361,9.54,0.0672,3.39,0.0562,0.629 µM,0.064 µM,0.261 µM,0.0222,1.31,0.375,9.24,0.0778,0.339 µM
Cc1[nH]c(=O)[nH]c(=O)c1CO,> 100,> 100,> 100,> 100 µM,> 100,> 100 µM,> 100,> 100,> 100,> 100,> 100,> 100 µM,> 100 µM,> 100 µM,> 100,> 100,> 100,> 100,> 100,> 100 µM
C[C@@H]1C=C2C(=O)O[C@@H]3CC[C@H](C1)[C@]23O,12.7,47,3.93,16.9 µM,–,12.7 µM,16.9,32.9,–,5.71,4.28,22.8 µM,10.9 µM,24 µM,3.51,19.6,2.33,16.2,3.74,16.7 µM
Cc1ccc(C)c(NC(=O)CC/C(=N\NC(=O)C(N)=O)C(C)C(=O)c2ccc(O)cc2)c1 (stereo not given),–,> 100,–,> 100 µM,–,> 100 µM,–,> 100,–,> 100,–,> 100 µM,–,> 100 µM,–,> 100,–,> 100,–,> 100 µM
N#Cc1ccnc(N2C(=O)CC[C@H]2C(=O)N(c2cncc(F)c2)[C@H](C(=O)NC2CC(F)(F)C2)c2ccccc2Cl)c1,65.8,> 100,> 100,> 100 µM,> 100,> 100 µM,> 100,> 100,> 100,> 100,49.1,> 100 µM,> 100 µM,> 100 µM,62.5,> 100,> 100,> 100,18.3,> 100 µM
COc1cc(/C=C2\COc3ccc(O)c(O)c3C2=O)cc(OC)c1,2.16,12.1,1.54,3.74 µM,1.27,3.04 µM,1.85,3.5,0.842,11.2,1.56,4.55 µM,1.72 µM,3.13 µM,0.852,12.5,1.79,4.97,1.02,2.29 µM
CO[C@@H]1[C@H](OC(=O)NC(=O)CCl)CC[C@]2(CO2)[C@H]1[C@@]1(C)O[C@@H]1CC=C(C)C,4.25,44.2,7.3,30.8 µM and 37.5 µM,29.6,25.7 µM and 59.1 µM,–,10.8,–,14.8,–,32.3 µM and 40.5 µM,3.87 µM and 12.3 µM,24.2 µM and 40.7 µM,6.76,39.4,8.41,28,16.1,26.6 µM and 46.2 µM
Cc1ccc(S(=O)(=O)N2CCc3ccc(O)c4c3C2Cc2cc(Cl)ccc2-4)cc1 (stereo not given),1.16,5.44,2.06,23.5 µM,1.3,16.9 µM,1.65,5.37,1.05,4.06,0.88,2.96 µM,1.55 µM,5.1 µM,1.06,4.26,1.45,7.08,1.52,14.4 µM
Cn1cc(C2=C(c3cn(CCN)c4ccccc34)C(=O)NC2=O)c2ccccc21,6.75,> 25,5.47,> 25 µM,4.18,24.5 µM,7.22,20.9,6.55,14.9,6.15,19.5 µM,4.59 µM,13 µM,4.8,17,6.17,15.2,3.7,20.6 µM
CCN(CC)C(=O)COc1ccc(Br)cc1Br,–,> 100,–,> 100 µM,–,> 100 µM,–,> 100,–,> 100,–,> 100 µM,–,> 100 µM,–,> 100,–,> 100,–,> 100 µM
